Experiment [1] deals with SARS-CoV. As to conditions: read-out: EC50 (SARS-CoV); cited from earlier work.
Experiment [2] has as its system HCV subgenomic replicon RNA. In words: real-time RT-PCR quantification of replicon RNA. It counts as cell-based, hepatitis C virus (HCV). As to conditions: two-day incubation. On the technique in general: In qPCR the cycle at which signal appears reflects the starting amount.

A word on the EC50: it is the midpoint of the concentration-response curve. On to `O=C(OC[C@H]1C[C@@H](n2cnc3c(Cl)ncnc32)[C@@H]1CO)c1ccccc1` [Compound 5], for which the EC50 in experiment [1] is 14.5 µM.
With `OC[C@H]1C[C@@H](n2cnc3c(Cl)ncnc32)[C@@H]1CO` [Compound 6], the EC50 in experiment [1] was above 300 µM.
In the case of `O=C(OC[C@H]1O[C@@H](n2cnc3c(Cl)ncnc32)C[C@@H]1O)c1ccccc1` [Compound 10, 9-(5-O-benzoyl-β-D-2-deoxyribofuranosyl)-6-chloropurine], the “replicon RNA amount” value in experiment [2] (12.5 μM) is “approximately 45%”; in experiment [2] (25 μM), around 6%.

The record behind these values is article PMC7125560 (Bioorganic & Medicinal Chemistry, 2007).
